For assay [1], the system named is Saccharomyces cerevisiae diploid wild-type strain (BY4743). As to the kind of experiment: Growth inhibition of wild type Saccharomyces cerevisiae in YPD medium (96-well, OD600). In kind it is cell-based. As to the method: Figure 5 Structure-activity studies of hypoculoside. (A) Wild type strain (BY4743), vps35Δ, pep8Δ, vps20Δ, vps27Δ and vps36Δ strains were grown in YPD medium in the presence of hypoculoside or hypoculine at the indicated concentrations. Normalized growth at the different concentrations of hypoculoside and hypoculine tested after 24 hours of incubation at 30 °C is plotted for each strain. (B) Wild type strain (BY4743), vps35Δ, pep8Δ, vps20Δ, vps27Δ and vps36Δ strains were grown in YPD medium in the presence of hypoculoside or phytosphingosine or dihydrosphingosine at the indicated concentrations. Normalized growth at the different concentrations of hypoculoside, phytosphingosine and dihydrosphingosine tested after 24 hours of incubation at 30 °C is plotted for each strain.
Susceptibility of Candida albicans strain SC5314 to hypoculoside and amphotericin B was determined by a broth microdilution assay using Clinical Laboratory Standards Institute (CLSI) guidelines. Cells grown to exponential phase in YPD medium (1% Yeast extract, 2% Bacto peptone and 2% glucose) were harvested, washed and resuspended in RPMI 1640 medium at a density of 2×10^3 cells/mL. RPMI 1640 medium with L-glutamine without sodium bicarbonate (Sigma) was buffered with 0.165 M morpholinepropanesulfonic acid (MOPS) to a pH of 7.0. Two-fold dilutions of hypoculoside and amphotericin B were prepared such that final concentration of DMSO was 1% in all cultures. Cell suspension was distributed in microtiter plate (200 µL/well) and incubated at 35 °C with 220 rpm for 24 h. The Saccharomyces cerevisiae diploid wild-type strain (BY4743) was used for determining the Inhibitory Concentration (IC) of hypoculoside. Frozen yeast cells were allowed to recover on YPD agar plates and grown in YPD medium for nine generations (OD600 nm ≤ 2). Cells were diluted to OD600 nm of 0.0625 in YPD medium. 200 μL of the diluted yeast culture was transferred into the 96-well microtiter plate having 2-fold serially diluted concentrations of hypoculoside. Cells were incubated in a microplate reader for 16–24 hours at 30 °C with shaking. IC of hypoculoside was computed by comparing the growth of treated versus control cells.

Assay [2] relates to Candida albicans strain SC5314. The experiment in a line: Broth microdilution growth inhibition of Candida albicans (CLSI guidelines, OD600 after 24 h). Conditions: strain SC5314, OD600 nm after 24 hours, read-out: IC50 for inhibition of growth of C. albicans cells. In kind it is cell-based. As to the method:
Figure 2 Hypoculoside has antifungal activity. (A) Workflow used in the purification and analysis of hypoculoside from Acremonium sp. F2434. (B) Structure of hypoculoside (8) and its aglycone derivative hypoculine (9). (C) Logarithmically growing Candida albicans cells were exposed to hypoculoside and amphotericin B at various concentrations in triplicates in a 96-well microplate. Growth of the cells was quantified by recording the absorbance at 600 nm after 24 hours. Growth (normalized with respect to DMSO-treated cells) is plotted against log of concentration of the compound. A picture of the microplate after 24 hours of incubation at 30 °C is shown in Supplementary Fig. S2A. (D) Effect of hypoculoside on the growth of Saccharomyces cerevisiae cells grown in YPD medium was analyzed in the similar way as for Candida albicans described above in C.
We evaluated the potency of hypoculoside by examining its effect on the growth of Candida albicans strain (SC5314) using the Clinical and Laboratory Standards Institute (CLSI) guidelines. We used the well-known antifungal amphotericin B as a positive control. We exposed logarithmically growing Candida albicans cells to hypoculoside and amphotericin B at various concentrations and monitored the growth by recording the OD600 nm after 24 hours. […]
A general note: In broth dilution the organism is exposed to a series of concentrations in liquid medium.

The next assay relates to Wild type yeast cells. The experiment in a line: FM 4-64FX fluorescence microscopy (endocytosis / membrane integrity). Type of assay: cell-based, Saccharomyces cerevisiae. Particulars: 5.4 µM pre-treatment for 30 minutes. The protocol:
To test if hypoculoside affects endocytosis, we used a dye FM 4–64FX which is a fixable analog of the FM 4-64 membrane stain. We incubated logarithmically growing yeast cells with either DMSO or hypoculoside for 30 minutes and then washed the cells off the compound and resuspended them in fresh growth medium containing FM 4-64FX to visualize endocytosis and vacuolar structure. In DMSO pre-treated cells, FM 4-64FX first stained the plasma membrane (Fig. 8A) at t = 0 and stained the cytoplasmic structures after 30′ indicating its uptake by endocytosis (Fig. 8A).
Figure 8 Hypoculoside but not hypoculine disrupts the membrane integrity of yeast cells. (A) Wild type yeast cells pre-treated with either DMSO or hypoculoside (5.4 μM) were exposed to FM 4-64FX. Uptake of FM 4-64FX after 0′, 30′ and 120′ was analyzed by fluorescence microscopy of fixed cells. […] They were then treated with propidium iodide (PI) and percentage of PI-staining cells was assayed by fluorescence microscopy. Representative images of cells visualized by bright field and fluorescence microscopy are shown along with quantification of PI-staining cells (N = 100 cells) in (C).
Labelling of yeast cells with FM4-64FX (Invitrogen) was done as previously reported. […] The images were acquired using an inverted fluorescence microscope ZEISS LSM 5 LIVE (Carl Zeiss, Oberkochen, Germany).

In general, IC50 refers to the concentration that gives 50% inhibition. Broadly, the inhibition is how much of the control response was suppressed. In the case of `CC(N)C(O)CCCCCCCCCCCCCCCCCCC(O)C(C)OC1OC(CO)C(O)C(O)C1O` (centres unmarked) [hypoculoside, Hypoculoside], the “concentration that inhibited the growth of wild type cells” value in assay [1] (BY4743, YPD, 24 hours at 30 °C (Fig. 5A)) worked out at 11 µM. Further, the IC50 in assay [1] (Saccharomyces cerevisiae, read-out: IC50 for growth of Saccharomyces cerevisiae cells) was 7.2 µM; in assay [2], 7.6 µM. Also, in assay [1] (Saccharomyces cerevisiae, 5.5 µM, YPD, 24 hours at 30 °C), the inhibition at 5.5 µM amounted to 10%. For the same compound, the “FM 4-64FX staining pattern of pre-treated cells” value in the assay with Wild type yeast cells is “stained the cytoplasmic contents even at t = 0”.

These data come from paper PMC6345779, “Hypoculoside, a sphingoid base-like compound from Acremonium disrupts the membrane integrity of yeast cells” (Scientific Reports, 2019).
